Data set [1] can be described thus: Stability at 60° C. in methanol-water, acetate buffer. The conditions noted are these: methanol-water, acetate buffer. It counts as physicochemical. As for the experimental part: Laidlomycin phenylcarbamate, laidlomycin isopopylcarbamate and two laidlomycin esters were prepared and their relative stability at 60° C. methanol-water, acetate buffer was determined. A complete list of the esters and carbamates which were tested under these conditions follows: […]

Data set [2] in a line: Stability in soybean millrun feed premix at 60° C. In kind it is physicochemical. The conditions noted are these: soybean millrun feed premix; 60° C., one week, soybean millrun premix, 10% (w/w). As for the experimental part:
These materials were then stored at 60° C. and analyzed for starting material at one week. The premix composition is given in Table 5 and the stability data in Table 6.

The conditions of data set [3]: U.S. Pat. No. 3,794,732; cited from earlier work.
Data set [4] concerns Gram positive bacteria. Particulars: Journal of Antibiotics 1974, 1976; cited from earlier work.
Data set [5] deals with rumen fluid. Nature of the data set: Propionic acid production (VFA) in in vitro rumen fluid fermentation. It counts as cell-based, steer. Also noted: Propionic acid production rate: unit not given here. The conditions noted are these: 9 h. As for the experimental part: (§1) Two separate fermentation models were used to evaluate effects of laidlomycin and laidlomycin phenylcarbamate upon volatile fatty acids (VFA) and lactic acid production. Test compounds were solubilized in absolute ethanol at concentrations of 1 mg/ml and were serially diluted twofold in absolute ethanol through six additional concentrations. Aliquots of 200 μl were transferred to 18×150 mm test tubes, which were used as incubation vessels, and the ethanol was evaporated.
(§2) For both fermentation models rumen fluid from a rumen-fistulated steer, consuming a 100% alfalfa hay diet, was obtained before the morning feeding. The fluid was strained through four layers of cheesecloth, mixed with an equal volume of CO2 -saturated buffer, and 10 ml was transferred to each of the incubation vessels. All tubes were fitted with gas-release stoppers under an atmosphere of CO2 and were incubated in a shaking waterbath at 39° C. […] This medium, designed to be microbiologically nonselective, encouraged VFA production with no accumulation of lactic acid. Buffer used to study lactic acid accumulation (table 1) contained 150 mmol of glucose/liter and had little buffering capacity. This medium favored growth of lactic acid-producing bacteria and allowed rapid production of lactic acid coupled with a precipitous drop in pH from pH 6.2 to less than pH 5 during the course of an incubation.
(§3) Fermentation was terminated at 9 h for the VFA fermentations and at 5.5 h for the lactic acid fermentations by addition of 2 ml of 25% metaphosphoric acid to the incubation tubes. Aliquots were frozen overnight, thawed, centrifuged at 30,000 × g for 10 min and the resulting supernatants analyzed for either L(+)-lactic acid or VFA. The L(+)-lactic acid was analyzed via a specific enzymatic assay in which the concentration of lactic acid in the fermentation broth was quantified by the increase in absorbance of light at 340 nm when nicotinamide adenine dinucleotide was reduced by lactic acid with the aid of L(+)-lactic dehydrogenase. VFA were analyzed via gas chromatography using a Varian chromatograph equipped with a flame ionization detector. Acids were separated on a glass column (0.64×182.9 cm) packed with 10% SP-1200/1% H3 PO4 on Chromosorb-WAW®, 80-100 mesh. This column was obtained pre-packed from Supelco, Inc., Bellefont, Pennsylvania. Chromatographic conditions included a column temperature of 145° C., an injector temperature of 190° C., a detector temperature of 190° C., a carrier gas flow of 45 ml/min and an injection volume of 1 μl.
(§4) Net production rates of all acids were calculated by subtracting the concentration of acids in the incubation fluid before incubation from the concentration determined in each tube after incubation. Molar proportions of acetic, propionic, and butyric acids produced were calculated by dividing the production rate of individual acids by the sum of the production rates of the three acids. Data were analyzed by analysis of variance (SAS, 1979). Comparisons (Duncan's multiple range test) of individual means were made when treatment effects (P<0.05) were indicated.

In data set [6] the test system is rumen fluid. Nature of the data set: L(+)-Lactic acid production in in vitro rumen fluid fermentation. In kind it is cell-based, steer. Further details: Lactic acid production rate: unit not given here. Particulars: 5.5 h. The protocol:
as §1, §2, §3, §4

Read-outs that look alike come from different tables or passages of the source.

By fraction remaining is commonly meant what is left of the initial amount, in per cent.

For the compound `CCCC(=O)O` [butyrate], the half-life in data set [1] is 22.3 h.

`CCC(=O)OCC1(O)OC(C2CC(C)C(C3(C)CCC(C4(C)CCC5(CC(O)C(C)C(C(C)C(OC(=O)CC)C(C)C(=O)O)O5)O4)O3)O2)C(C)CC1C` (stereo not shown) [Laidlomycin propionate, reference compound] returned a fraction remaining at 168 h in data set [2] of 59%. Moreover, the half-life in data set [1] (60° C., read-out: t1/2 (converted)) was 11.1 h.

Take `CC[C@@]1([C@@H]2O[C@@H]([C@H]3O[C@@](O)(CO)[C@H](C)C[C@@H]3C)C[C@@H]2C)CC[C@H]([C@]2(C)CC[C@]3(C[C@H](O)[C@@H](C)[C@@H]([C@@H](C)[C@@H](OC)[C@H](C)C(=O)O)O3)O2)O1` [Monensin]: the “Increasing feed utilization in ruminants” value in data set [3] is listed as “useful in increasing feed utilization in ruminants”.

`CCC(=O)OC(C(C)C(=O)O)C(C)C1OC2(CCC(C)(C3CCC(C)(C4OC(C5OC(O)(CO)C(C)CC5C)CC4C)O3)O2)CC(O)C1C` (stereo not shown) [Laidlomycin, laidlomycin]: in data set [4], the “Growth inhibition of Gram positive bacteria” value is reported as “inhibits the growth of Gram positive bacteria”. The “Propionic acid production rate” value in data set [5] (0.31 μg/ml) is listed as 21.1; in data set [5] (1.25 μg/ml), 20.9; in data set [5] (2.50 μg/ml) it was 21.8; in data set [5] (5.00 μg/ml), 22.2; in data set [5] (10.00 μg/ml) it was 23.1; in data set [5] (20.00 μg/ml), 23.2. The “Propionic acid production, percentage of control” value in data set [5] (10.00 μg/ml) was 108 % of control; in data set [5] (20.00 μg/ml) it was 109 % of control. Further, the activity at 0.31 µg/mL in data set [5] (0.31 μg/ml, read-out: Propionic acid production, percentage of control) was 99%; in data set [6] (0.31 μg/ml, read-out: Lactic acid production, percentage of control), 101%. The activity at 1.25 µg/mL in data set [5] (1.25 μg/ml, read-out: Propionic acid production, percentage of control) amounted to 98%; in data set [6] (1.25 μg/ml, read-out: Lactic acid production, percentage of control), 94%. Besides, the activity at 2.5 µg/mL worked out at 102% in data set [5] (2.50 μg/ml, read-out: Propionic acid production, percentage of control) and 115% in data set [6] (2.50 μg/ml, read-out: Lactic acid production, percentage of control). For the same compound, the activity at 5 µg/mL stood at 104% in data set [5] (5.00 μg/ml, read-out: Propionic acid production, percentage of control) and 95% in data set [6] (5.00 μg/ml, read-out: Lactic acid production, percentage of control). The activity at 10 µg/mL is 108% in data set [5] (10.00 μg/ml, read-out: Propionic acid production, percentage of control) and 77% in data set [6] (10.00 μg/ml, read-out: Lactic acid production, percentage of control). The activity at 20 µg/mL in data set [5] (20.00 μg/ml, read-out: Propionic acid production, percentage of control) was 109%; in data set [6] (20.00 μg/ml, read-out: Lactic acid production, percentage of control), 81%. The activity at 0.62 µg/mL worked out at 98% in data set [5] (read-out: Propionic acid production, percentage of control, 0.62 μg/ml, 9 h) and 110% in data set [6] (0.62 μg/ml, read-out: Lactic acid production, percentage of control). Moreover, the “Lactic acid production rate” value was found to be 28.3 in data set [6] (0.31 μg/ml); 30.7 in data set [6] (0.62 μg/ml); 26.4 in data set [6] (1.25 μg/ml); 32.0 in data set [6] (2.50 μg/ml); 26.5 in data set [6] (5.00 μg/ml); 21.6 in data set [6] (10.00 μg/ml). Besides, the “Lactic acid production rate” value in data set [6] (20.00 μg/ml) was 22.7. Further, the “Lactic acid production, percentage of control” value in data set [6] (20.00 μg/ml) is 81 % of control.

Compound “laidlomycin isopopylcarbamate [isopropylcarbamate]” had a t1/2 in data set [1] (60° C.) of 501.8 h.

On to `CCC(=O)OC(C(C)C(=O)O)C(C)C1OC2(CCC(C)(C3CCC(C)(C4OC(C5OC(O)(COC(=O)C(C)C)C(C)CC5C)CC4C)O3)O2)CC(O)C1C` (stereo not shown) [Laidlomycin isobutyrate, reference compound], for which the share remaining at 168 h in data set [2] was 70%.

These data come from patent US4542027A, “Laidlomycin phenylcarbamate” (Syntex (U.S.A.) Inc., priority 1984, dated 1985).
